Where two headings read alike, the source gives them in different places. Where only a bound is given, the exact number is not on record here.

For one experiment, the system named is TICs (Ovarian 2393A). As to the kind of experiment: Ovarian tumor-initiating cell growth inhibition (Alamar Blue). It counts as cell-based. The note with it: 144 h; Ovarian 2393A TICs, 6 days; read-out: Tumor Initiating Cell GI50 Range Ovarain 2393A. In general terms: Alamar Blue is a resazurin reagent that responds to reducing activity.
Another experiment deals with T1, ALK (Homo sapiens, UniProt Q9UM73).
T1 construct: purchased Millipore Corporation
T1 sequence (Q9UM73 19-1620): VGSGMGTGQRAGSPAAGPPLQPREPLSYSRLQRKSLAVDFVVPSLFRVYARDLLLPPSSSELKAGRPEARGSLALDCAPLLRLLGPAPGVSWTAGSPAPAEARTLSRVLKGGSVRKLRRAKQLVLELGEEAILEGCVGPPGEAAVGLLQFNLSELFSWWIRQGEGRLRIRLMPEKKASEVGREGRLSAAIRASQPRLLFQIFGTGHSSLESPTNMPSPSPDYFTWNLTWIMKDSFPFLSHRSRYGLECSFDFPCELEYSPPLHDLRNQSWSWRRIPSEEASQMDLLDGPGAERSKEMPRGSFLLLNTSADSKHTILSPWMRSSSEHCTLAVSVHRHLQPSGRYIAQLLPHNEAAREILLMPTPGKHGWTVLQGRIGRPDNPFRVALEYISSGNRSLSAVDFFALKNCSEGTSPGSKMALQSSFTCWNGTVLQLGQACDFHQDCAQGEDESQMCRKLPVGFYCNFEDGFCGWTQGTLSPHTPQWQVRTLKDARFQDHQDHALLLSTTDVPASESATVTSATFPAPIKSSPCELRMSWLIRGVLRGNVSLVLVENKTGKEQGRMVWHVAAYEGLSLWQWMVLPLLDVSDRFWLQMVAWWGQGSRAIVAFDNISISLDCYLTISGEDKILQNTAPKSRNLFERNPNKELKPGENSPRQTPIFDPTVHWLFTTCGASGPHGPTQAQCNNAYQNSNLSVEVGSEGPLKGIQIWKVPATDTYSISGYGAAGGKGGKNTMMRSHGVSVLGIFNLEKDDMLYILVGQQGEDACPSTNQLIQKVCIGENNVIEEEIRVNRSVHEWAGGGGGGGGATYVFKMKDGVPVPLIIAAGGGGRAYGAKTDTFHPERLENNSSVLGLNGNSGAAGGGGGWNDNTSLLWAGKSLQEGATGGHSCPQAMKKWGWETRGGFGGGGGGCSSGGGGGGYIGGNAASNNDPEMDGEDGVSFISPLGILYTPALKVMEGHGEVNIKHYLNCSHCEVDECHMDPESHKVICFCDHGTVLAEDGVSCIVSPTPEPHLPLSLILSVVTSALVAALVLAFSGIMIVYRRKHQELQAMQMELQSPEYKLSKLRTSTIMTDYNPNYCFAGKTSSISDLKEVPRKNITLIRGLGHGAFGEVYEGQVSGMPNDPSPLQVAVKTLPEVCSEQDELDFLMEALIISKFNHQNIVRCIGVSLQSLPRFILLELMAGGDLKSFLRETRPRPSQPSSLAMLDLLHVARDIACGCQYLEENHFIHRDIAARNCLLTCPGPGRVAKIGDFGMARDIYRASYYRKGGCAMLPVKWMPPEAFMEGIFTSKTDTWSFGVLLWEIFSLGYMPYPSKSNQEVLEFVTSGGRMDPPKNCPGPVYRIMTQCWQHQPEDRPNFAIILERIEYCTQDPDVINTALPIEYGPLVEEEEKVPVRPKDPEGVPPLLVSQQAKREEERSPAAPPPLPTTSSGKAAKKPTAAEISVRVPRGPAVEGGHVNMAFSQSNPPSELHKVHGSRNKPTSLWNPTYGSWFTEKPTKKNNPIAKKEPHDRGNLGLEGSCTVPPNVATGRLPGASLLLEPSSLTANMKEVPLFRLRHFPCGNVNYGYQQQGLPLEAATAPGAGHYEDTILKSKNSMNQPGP
Nature of the experiment: Panel of 270 human kinases (Millipore). The format is biochemical. As to the method:
(§1) The inhibitory activity of selected compounds of the invention (A335, A405, A410, A261, A300 and A363) was evaluated against a panel of 270 different human kinase enzymes by Millipore Corporation. The % Inhibition was determined by the formula: % Inhibition=100×(1−(experimental value−background value)/(high activity control−background value)).

In another experiment the target is T2, MUSK (Homo sapiens, UniProt O15146).
T2 construct: purchased Millipore Corporation
T2 sequence (O15146 24-869): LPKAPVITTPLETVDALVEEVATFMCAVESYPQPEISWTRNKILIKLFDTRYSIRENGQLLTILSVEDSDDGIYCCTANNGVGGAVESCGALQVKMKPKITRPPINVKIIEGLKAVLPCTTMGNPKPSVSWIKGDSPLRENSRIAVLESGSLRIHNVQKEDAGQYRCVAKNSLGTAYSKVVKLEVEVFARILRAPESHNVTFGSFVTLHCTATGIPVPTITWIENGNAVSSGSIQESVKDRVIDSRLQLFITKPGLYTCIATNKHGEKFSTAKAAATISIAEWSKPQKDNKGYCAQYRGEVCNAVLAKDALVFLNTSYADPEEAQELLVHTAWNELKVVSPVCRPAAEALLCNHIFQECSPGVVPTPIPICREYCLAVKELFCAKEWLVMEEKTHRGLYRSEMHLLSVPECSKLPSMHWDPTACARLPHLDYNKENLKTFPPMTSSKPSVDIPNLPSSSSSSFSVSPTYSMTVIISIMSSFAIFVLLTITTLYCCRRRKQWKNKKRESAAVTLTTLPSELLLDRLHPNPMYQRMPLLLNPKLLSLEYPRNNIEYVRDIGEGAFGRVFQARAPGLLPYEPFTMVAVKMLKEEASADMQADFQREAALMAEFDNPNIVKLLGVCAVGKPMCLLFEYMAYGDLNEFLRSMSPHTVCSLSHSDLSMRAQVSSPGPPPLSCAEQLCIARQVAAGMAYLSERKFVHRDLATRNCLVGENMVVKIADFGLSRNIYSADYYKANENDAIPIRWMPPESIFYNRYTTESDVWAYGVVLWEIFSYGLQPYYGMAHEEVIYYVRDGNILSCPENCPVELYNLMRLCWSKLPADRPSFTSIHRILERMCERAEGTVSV
Nature of the experiment: Panel of 270 human kinases (Millipore). The format is biochemical. As to the method:
as §1

The target in the next experiment is T3, cKit (V560G) (Homo sapiens, UniProt P10721, V560G).
T3 construct: purchased Millipore Corporation
As to the kind of experiment: Panel of 270 human kinases (Millipore). It counts as biochemical. As to the method: as §1

A further experiment has as its target T4, JNK3 (Homo sapiens, UniProt P53779).
T4 construct: purchased Millipore Corporation
As to the kind of experiment: Panel of 270 human kinases (Millipore). It counts as biochemical. As to the method: as §1

The target in another experiment is T5, Aurora-B (Homo sapiens, UniProt Q96GD4).
T5 construct: purchased Millipore Corporation
T5 sequence (Q96GD4 whole entry): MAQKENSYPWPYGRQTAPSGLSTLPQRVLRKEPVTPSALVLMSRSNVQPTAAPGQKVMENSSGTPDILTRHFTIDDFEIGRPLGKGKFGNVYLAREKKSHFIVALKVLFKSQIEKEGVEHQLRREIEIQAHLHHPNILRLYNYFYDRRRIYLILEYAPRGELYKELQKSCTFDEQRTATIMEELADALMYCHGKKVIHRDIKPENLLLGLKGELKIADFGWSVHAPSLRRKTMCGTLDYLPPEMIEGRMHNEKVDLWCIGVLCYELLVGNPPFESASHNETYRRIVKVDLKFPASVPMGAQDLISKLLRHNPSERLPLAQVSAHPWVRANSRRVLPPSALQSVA
As to the kind of experiment: Panel of 270 human kinases (Millipore). The format is biochemical. How it is done:
as §1

The target in another experiment is T6, MAPK2 (Homo sapiens, UniProt P28482).
T6 construct: purchased Millipore Corporation
T6 sequence (P28482 whole entry): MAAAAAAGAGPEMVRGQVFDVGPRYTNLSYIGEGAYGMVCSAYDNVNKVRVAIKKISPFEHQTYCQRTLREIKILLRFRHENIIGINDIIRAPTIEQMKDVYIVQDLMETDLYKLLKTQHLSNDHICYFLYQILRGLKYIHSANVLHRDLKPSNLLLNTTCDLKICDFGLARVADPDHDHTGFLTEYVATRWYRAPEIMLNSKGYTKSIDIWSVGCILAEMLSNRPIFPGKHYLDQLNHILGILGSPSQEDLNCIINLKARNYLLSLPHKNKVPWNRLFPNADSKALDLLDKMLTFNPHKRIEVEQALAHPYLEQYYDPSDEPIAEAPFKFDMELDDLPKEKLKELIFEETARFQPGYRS
Nature of the experiment: Panel of 270 human kinases (Millipore). It counts as biochemical. How it is done:
as §1

The target in a further experiment is T7, Met(Y1248C) (Homo sapiens, UniProt P08581, Y1230C).
T7 construct: purchased Millipore Corporation
T7 sequence (P08581 25-1408 isoform P08581-2 Y1248C limits assumed): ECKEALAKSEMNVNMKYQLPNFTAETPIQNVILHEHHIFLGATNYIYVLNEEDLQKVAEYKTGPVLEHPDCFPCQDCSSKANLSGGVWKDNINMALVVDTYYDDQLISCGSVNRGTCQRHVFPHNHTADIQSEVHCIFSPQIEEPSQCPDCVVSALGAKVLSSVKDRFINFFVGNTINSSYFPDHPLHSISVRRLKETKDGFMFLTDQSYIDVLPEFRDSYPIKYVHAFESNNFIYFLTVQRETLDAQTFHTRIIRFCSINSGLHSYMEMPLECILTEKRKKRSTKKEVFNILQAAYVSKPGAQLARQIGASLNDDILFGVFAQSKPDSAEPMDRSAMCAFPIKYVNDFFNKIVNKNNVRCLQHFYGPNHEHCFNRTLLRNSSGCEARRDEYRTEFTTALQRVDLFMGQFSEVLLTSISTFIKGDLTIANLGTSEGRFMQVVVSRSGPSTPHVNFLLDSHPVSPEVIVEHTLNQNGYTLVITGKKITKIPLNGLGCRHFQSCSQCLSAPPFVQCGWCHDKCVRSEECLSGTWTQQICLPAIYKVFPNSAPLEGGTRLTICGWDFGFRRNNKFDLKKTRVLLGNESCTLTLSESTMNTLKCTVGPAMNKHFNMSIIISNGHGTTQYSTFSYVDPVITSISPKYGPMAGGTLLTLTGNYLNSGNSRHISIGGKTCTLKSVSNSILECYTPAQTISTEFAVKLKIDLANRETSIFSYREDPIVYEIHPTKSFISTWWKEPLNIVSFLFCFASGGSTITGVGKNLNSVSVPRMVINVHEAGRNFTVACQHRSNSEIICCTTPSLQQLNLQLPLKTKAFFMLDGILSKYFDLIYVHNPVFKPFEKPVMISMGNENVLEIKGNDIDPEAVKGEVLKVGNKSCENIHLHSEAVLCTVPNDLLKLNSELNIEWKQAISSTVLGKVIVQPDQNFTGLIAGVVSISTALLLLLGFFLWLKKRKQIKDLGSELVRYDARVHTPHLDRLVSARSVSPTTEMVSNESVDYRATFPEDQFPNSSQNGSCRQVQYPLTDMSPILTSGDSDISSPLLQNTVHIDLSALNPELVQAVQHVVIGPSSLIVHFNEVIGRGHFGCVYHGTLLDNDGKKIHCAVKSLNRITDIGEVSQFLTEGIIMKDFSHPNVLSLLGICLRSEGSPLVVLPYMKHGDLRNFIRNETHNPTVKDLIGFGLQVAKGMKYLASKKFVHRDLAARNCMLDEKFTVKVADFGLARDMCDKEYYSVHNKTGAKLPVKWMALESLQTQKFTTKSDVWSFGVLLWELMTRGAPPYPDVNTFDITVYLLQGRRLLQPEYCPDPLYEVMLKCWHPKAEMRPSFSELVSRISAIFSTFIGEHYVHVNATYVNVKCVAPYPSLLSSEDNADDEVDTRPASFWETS
Nature of the experiment: Panel of 270 human kinases (Millipore). The format is biochemical. How it is done: as §1

The next experiment deals with T8, MELK (Homo sapiens, UniProt Q14680).
T8 construct: purchased Millipore Corporation
T8 sequence (Q14680 whole entry): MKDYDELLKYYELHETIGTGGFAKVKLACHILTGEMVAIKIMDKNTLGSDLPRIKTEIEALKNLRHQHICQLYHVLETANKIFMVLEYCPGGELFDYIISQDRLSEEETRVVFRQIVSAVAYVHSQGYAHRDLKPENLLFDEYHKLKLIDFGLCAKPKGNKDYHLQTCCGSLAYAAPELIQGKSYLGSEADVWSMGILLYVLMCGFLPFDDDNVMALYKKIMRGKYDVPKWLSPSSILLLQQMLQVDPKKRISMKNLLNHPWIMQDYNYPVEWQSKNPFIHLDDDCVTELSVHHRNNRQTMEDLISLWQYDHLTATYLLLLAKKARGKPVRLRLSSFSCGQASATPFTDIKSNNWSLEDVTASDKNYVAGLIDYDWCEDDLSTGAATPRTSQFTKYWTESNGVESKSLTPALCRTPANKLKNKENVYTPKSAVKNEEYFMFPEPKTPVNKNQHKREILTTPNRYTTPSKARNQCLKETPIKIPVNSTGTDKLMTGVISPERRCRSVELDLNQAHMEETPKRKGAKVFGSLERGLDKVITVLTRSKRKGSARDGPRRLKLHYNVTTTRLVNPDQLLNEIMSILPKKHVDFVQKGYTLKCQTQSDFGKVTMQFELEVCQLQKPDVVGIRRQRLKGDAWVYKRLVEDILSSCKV
As to the kind of experiment: Panel of 270 human kinases (Millipore). It counts as biochemical. As to the method: as §1

For the next experiment, the system named is TICs (Colon 12). As to the kind of experiment: Colon tumor-initiating cell growth inhibition (Alamar Blue). The format is cell-based. Particulars: 216 h; Colon 12 TICs, 9 days; read-out: Tumor Initiating Cell GI50 Range Colon 12.
For experiment [1], the system named is ovarian cancer cells (PA-1). Nature of the experiment: Cancer cell line growth inhibition (SRB assay). The format is cell-based. Particulars: Homo sapiens, PA-1; read-out: Cancer Cell Line GI50 Range PA-1.
Experiment [2] concerns colon cancer cells (HCT116). Nature of the experiment: Cancer cell line growth inhibition (SRB assay). Particulars: Homo sapiens, HCT-116; read-out: Cancer Cell Line GI50 Range HCT116. It counts as cell-based. (In general: Sulforhodamine B stains cellular protein and so reports cell mass.)
Procedure: Breast cancer cells (MDA-MB-231), colon cancer cells (HCT116) and ovarian cancer cells (PA-1) were seeded (1000 to 4000 in 80 μl per well depending on the cell growth rate) into 96 well plates 24 hours before compound overlay. Compounds were prepared as 10 mM stock solutions in 100% DMSO which were diluted with DMEM (Dulbecco's Modified Eagle's Medium) cell growth Medium (Invitrogen, Burlington, ON, Canada) containing 10% FBS (Fetal Bovine Serum) to concentrations ranging from 50 nM to 250 μM. Aliquots (20 μl) from each concentration were overlaid to 80 μl of the pre-seeded cells in the 96 well plates to make final concentrations of 10 nM to 50 μM. The cells were cultured for 5 days before the Sulforhodamine B assay (SRB) was performed to determine the compound's cell growth inhibition activity.
Sulforhodamine B (purchased from Sigma, Oakville, ON, Canada) is a water-soluble dye that binds to the basic amino acids of the cellular proteins. Thus, colorimetric measurement of the bound dye provides an estimate of the total protein mass that is related to the cell number. the cells are fixed in situ by gently aspirating off the culture media and adding 50 μl ice cold 10% Trichloroacetic Acid (TCA) per well and incubate at 4° C. for 30-60 min. The plates are washed with H2O five times and allowed to air dry for 5 min. Addition of 50 μl 0.4% (w/v) SRB solution in 1% (v/v) acetic acid to each well and incubation for 30 min at RT completes the staining reaction. Following staining, plates are washed four times with 1% acetic acid to remove unbound dye and then allowed to air dry for 5 min. The stain is solubilized with 100 μl of 10 mM Tris pH 10.5 per well. Absorbance is read at 570 nm.
The percentage (%) of relative growth inhibition was calculated by comparing to DMSO treated only cells (100%). GI50's were determined for compounds with cytotoxic activity. The GI50 was calculated using GraphPad PRISM software (GraphPad Software, Inc., San Diego, Calif., USA).
Another experiment deals with Breast cancer cells. As to the kind of experiment: Cancer cell line growth inhibition (SRB assay). The format is cell-based. Particulars: Homo sapiens; MDA-MB-468; read-out: Cancer Cell Line GI50 Range MDA-MB-468.
The target of another experiment is T9, human TTK (Homo sapiens, UniProt P33981).
T9 construct: amino terminal GST fusion of full length human TTK; purchased Invitrogen
T9 sequence (P33981 1-857): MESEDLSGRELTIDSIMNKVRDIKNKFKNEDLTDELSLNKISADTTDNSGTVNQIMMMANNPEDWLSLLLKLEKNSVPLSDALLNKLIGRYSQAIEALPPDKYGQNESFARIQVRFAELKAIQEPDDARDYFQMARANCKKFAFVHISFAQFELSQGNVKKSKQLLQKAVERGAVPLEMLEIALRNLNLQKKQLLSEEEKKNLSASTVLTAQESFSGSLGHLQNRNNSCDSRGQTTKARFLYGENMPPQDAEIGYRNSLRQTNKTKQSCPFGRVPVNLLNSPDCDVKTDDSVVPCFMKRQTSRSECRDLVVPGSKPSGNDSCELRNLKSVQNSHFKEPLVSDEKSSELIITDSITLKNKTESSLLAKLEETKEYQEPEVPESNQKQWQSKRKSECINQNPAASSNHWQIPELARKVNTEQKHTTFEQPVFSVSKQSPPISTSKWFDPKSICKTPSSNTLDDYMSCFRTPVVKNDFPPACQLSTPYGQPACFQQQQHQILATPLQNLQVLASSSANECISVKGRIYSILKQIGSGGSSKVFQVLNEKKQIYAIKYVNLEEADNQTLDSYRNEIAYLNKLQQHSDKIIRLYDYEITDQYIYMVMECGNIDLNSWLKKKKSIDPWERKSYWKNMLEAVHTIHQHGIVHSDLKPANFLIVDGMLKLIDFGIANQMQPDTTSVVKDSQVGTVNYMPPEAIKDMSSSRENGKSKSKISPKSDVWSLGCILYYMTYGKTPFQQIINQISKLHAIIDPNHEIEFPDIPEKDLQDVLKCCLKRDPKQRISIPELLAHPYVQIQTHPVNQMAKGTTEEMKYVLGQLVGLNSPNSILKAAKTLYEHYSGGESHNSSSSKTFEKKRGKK
As to the kind of experiment: TTK inhibition assay (indirect ELISA). The format is biochemical. Background: ELISA stands for enzyme-linked immunosorbent assay.

A further experiment concerns the target T10, human PLK4 (Homo sapiens, UniProt O00444).
T10 construct: amino terminal GST fusion of residues 1-391 of human PLK4; made in house; host or cells: E. coli
T10 sequence (O00444 1-391): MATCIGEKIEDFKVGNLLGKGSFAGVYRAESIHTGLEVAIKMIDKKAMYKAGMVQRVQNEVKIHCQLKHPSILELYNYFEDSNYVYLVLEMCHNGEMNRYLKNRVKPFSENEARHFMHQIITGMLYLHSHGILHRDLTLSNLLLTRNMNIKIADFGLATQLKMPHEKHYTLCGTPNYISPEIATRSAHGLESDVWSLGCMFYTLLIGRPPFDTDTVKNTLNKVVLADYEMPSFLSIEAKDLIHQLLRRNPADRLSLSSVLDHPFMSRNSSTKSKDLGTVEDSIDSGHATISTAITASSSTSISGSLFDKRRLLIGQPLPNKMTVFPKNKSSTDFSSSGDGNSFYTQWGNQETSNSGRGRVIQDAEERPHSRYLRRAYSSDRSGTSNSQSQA
As to the kind of experiment: PLK4 inhibition assay (indirect ELISA). Particulars: 15 μM ATP. It counts as biochemical. The procedure, abridged: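 Dephosphorylated GST-PLK4 (residues 1-391, E. coli; 4 nM) was preincubated 15 min with compound, then reacted 30 min with 15 μM ATP in HEPES pH 7.4, MgCl2, Brij 35 on MBP-coated plates. Phospho-MBP was detected by antibody/HRP ELISA at 450 nm; IC50 from 10-point titration by 4-parameter logistic fit, or single 10 μM % inhibition.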

T4 sequence (P53779 whole entry): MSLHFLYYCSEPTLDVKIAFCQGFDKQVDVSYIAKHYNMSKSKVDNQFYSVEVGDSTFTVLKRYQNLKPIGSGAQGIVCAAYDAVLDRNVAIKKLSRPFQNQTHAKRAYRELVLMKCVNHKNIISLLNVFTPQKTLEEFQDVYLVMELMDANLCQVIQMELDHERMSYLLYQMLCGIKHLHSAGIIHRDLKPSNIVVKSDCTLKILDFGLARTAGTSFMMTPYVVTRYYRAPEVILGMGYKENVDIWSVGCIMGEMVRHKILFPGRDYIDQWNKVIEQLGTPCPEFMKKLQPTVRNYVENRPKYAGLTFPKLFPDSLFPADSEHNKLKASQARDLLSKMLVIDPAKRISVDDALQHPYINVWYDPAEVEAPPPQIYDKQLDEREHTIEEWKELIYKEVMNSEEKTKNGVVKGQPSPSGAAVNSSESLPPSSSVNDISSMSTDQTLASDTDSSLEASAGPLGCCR

Take `CC(C)[C@H](NC(=O)c1ccc2[nH]nc(-c3ccc(N4CCN(C5COC5)CC4)cc3)c2c1)c1ccccc1Cl` [Example A405, (S)-N-(1-(2-chlorophenyl)-2-methylpropyl)-3-(4-(4-(oxetan-3-yl)piperazin-1-yl)phenyl)-1H-indazole-5-carboxamide]: the GI50 (in the experiment on TICs (Ovarian 2393A); in the experiment with TICs (Colon 12); in experiment [1]; in experiment [2]; in the experiment on Breast cancer cells) was less than 100 nM in each case. Further, the inhibition (in general, the drop in the measured response relative to a control, in per cent) at 1 µM against ALK came out at 2%; against MUSK, 94%; at cKit (V560G) it was 65%; against JNK3, 81%; against Aurora-B, 94%; on MAPK2, 11%. The inhibition at 1 µM came to 44% on Met(Y1248C) and 92% against MELK. For the same compound, at human TTK (read-out: TTK IC50 Range), the IC50 – broadly, the midpoint of a concentration-inhibition curve – is less than 100 nM.
As for `O=C(N[C@H](c1ccccn1)C1CCCC1)c1ccc2[nH]nc(-c3ccc(N4CCN(C5COC5)CC4)cc3)c2c1` [Example A410, (S)-N-(cyclopentyl(pyridin-2-yl)methyl)-3-(4-(4-(oxetan-3-yl)piperazin-1-yl)phenyl)-1H-indazole-5-carboxamide], the GI50 (with TICs (Ovarian 2393A); in the experiment on TICs (Colon 12); in experiment [1]; in [2]) was less than 100 nM throughout. For the same compound, the inhibition at 1 µM against ALK is -3%; at MUSK it was 96%; at cKit (V560G), 86%; against JNK3, 81%; at Aurora-B, 92%; on MAPK2 it was -8%. Moreover, the inhibition at 1 µM is 88% against Met(Y1248C) and 95% against MELK. In addition, on human TTK (read-out: TTK IC50 Range), the IC50 is less than 100 nM.
With `O=C(N[C@@H](c1ccccn1)C1CC1)c1ccc2[nH]nc(-c3ccc(N4C5CCC4CC(O)C5)cc3)c2c1` (stereo partly drawn) [Example A363, N-((R)-cyclopropyl(pyridin-2-yl)methyl)-3-(4-((1R,3R,5S)-3-hydroxy-8-azabicyclo[3.2.1]octan-8-yl)phenyl)-1H-indazole-5-carboxamide], the GI50 (in the experiment on TICs (Ovarian 2393A); with TICs (Colon 12); in [1]; in [2]) was less than 100 nM throughout. The inhibition at 1 µM came to 6% against ALK; 53% against MUSK; 48% against cKit (V560G); 90% on JNK3; 75% on Aurora-B; 90% against MAPK2. In addition, the inhibition at 1 µM against Met(Y1248C) stood at 23%; at MELK, 80%. In addition, the IC50 against human TTK was less than 100 nM.
Consider `CC(C)C[C@H](NC(=O)c1ccc2[nH]nc(-c3ccc(OC4CC5CCC(C4)N5C=O)cc3)c2c1)c1ccccn1` (stereo partly drawn) [Example A358, 3-(4-(((1R,3R,5S)-8-formyl-8-azabicyclo[3.2.1]octan-3-yl)oxy)phenyl)-N-((S)-3-methyl-1-(pyridin-2-yl)butyl)-1H-indazole-5-carboxamide], for which the GI50 (in the experiment with TICs (Ovarian 2393A); with TICs (Colon 12); in experiment [1]; in experiment [2]; in the experiment on Breast cancer cells) was less than 100 nM throughout. Moreover, the IC50 was less than 50 nM at human PLK4 and less than 100 nM on human TTK (read-out: TTK IC50 Range).
As to `CC(C)CC(NC(=O)c1ccc2[nH]nc(-c3ccc(N4CCN(C5COC5)CC4)cc3)c2c1)c1ccccc1Cl` (stereo not shown) [Example A298, N-(1-(2-chlorophenyl)-3-methylbutyl)-3-(4-(4-(oxetan-3-yl)piperazin-1-yl)phenyl)-1H-indazole-5-carboxamide], the GI50 (in the experiment with TICs (Ovarian 2393A); in the experiment with TICs (Colon 12); in experiment [1]; in experiment [2]; with Breast cancer cells) was less than 100 nM in each case. Moreover, the 50% inhibitory concentration (IC50) at human PLK4 is less than 50 nM; on human TTK (read-out: TTK IC50 Range) it was less than 100 nM.
For `CN1C2CCC1CC(Oc1ccc(-c3n[nH]c4ccc(C(=O)N[C@H](c5ccccc5Cl)C5CC5)cc34)cc1)C2` (stereo partly drawn) [Example A235, N-((S)-(2-chlorophenyl)(cyclopropyl)methyl)-3-(4-(((1R,3R,5S)-8-methyl-8-azabicyclo[3.2.1]octan-3-yl)oxy)phenyl)-1H-indazole-5-carboxamide], the GI50 (with TICs (Ovarian 2393A); with TICs (Colon 12); in experiment [1]; in experiment [2]; in the experiment with Breast cancer cells) was less than 100 nM in each case. The values for the IC50 on human PLK4 and at human TTK (read-out: TTK IC50 Range) were less than 50 nM and less than 100 nM, respectively.

Values taken from patent publication US9580390B2, “Indazole compounds as kinase inhibitors and method of treating cancer with same” (University Health Network, priority 2011, dated 2017).
